Results published in ChEMBL document CHEMBL1139192, “Novel bis(indolyl)maleimide pyridinophanes that are potent, selective inhibitors of glycogen synthase kinase-3” (Bioorg Med Chem Lett, 2007).

Columns and labels:
[1] = molecular target: Platelet-derived growth factor receptor alpha (Homo sapiens) (UniProt P16234); test: Inhibition of human PDGFRalpha at 1 uM relative to control; values are per cent of control
[2] = molecular target: Tyrosine-protein kinase Blk (Mus musculus) (UniProt P16277); test: Inhibition of mouse Blk at 1 uM relative to control; values are per cent of control
Tyrosine-protein kinase Blk (Mus musculus), sequence (P16277 whole entry): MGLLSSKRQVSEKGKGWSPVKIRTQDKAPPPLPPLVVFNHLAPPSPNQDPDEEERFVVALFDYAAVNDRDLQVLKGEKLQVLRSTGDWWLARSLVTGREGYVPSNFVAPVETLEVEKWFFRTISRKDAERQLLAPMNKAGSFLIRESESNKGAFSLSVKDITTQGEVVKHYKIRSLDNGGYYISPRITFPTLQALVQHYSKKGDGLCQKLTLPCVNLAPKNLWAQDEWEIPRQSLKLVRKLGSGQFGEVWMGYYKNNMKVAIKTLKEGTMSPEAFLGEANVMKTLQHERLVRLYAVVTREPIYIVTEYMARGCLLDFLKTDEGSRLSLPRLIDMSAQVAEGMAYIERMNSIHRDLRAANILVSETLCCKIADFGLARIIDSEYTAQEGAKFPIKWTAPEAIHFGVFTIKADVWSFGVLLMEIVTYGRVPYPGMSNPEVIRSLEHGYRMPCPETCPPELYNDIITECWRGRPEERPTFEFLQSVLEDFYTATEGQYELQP

[3] = molecular target: Mitogen-activated protein kinase 14 (Homo sapiens) (UniProt Q16539); test: Inhibition of human SAPK2a at 1 uM relative to control; values are per cent of control
Mitogen-activated protein kinase 14 (Homo sapiens), sequence (Q16539 whole entry): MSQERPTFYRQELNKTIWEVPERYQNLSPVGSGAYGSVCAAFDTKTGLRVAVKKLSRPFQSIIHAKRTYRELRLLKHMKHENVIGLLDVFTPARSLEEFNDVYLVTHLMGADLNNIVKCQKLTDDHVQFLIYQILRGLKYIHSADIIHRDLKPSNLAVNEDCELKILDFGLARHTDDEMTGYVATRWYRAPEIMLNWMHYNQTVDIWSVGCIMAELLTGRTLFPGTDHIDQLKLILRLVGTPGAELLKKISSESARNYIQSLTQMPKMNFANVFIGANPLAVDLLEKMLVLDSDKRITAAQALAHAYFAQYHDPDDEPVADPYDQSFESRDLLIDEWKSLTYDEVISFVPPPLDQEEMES

Homo sapiens [4] = organism: Homo sapiens; test: Inhibition of human CDK7/Cyclin H at 1 uM relative to control; values are per cent of control
[5] = molecular target: T1, Aurora kinase A (Homo sapiens) (UniProt O14965); test: Residual activity of human Aurora A at 1 uM relative to control
T1 sequence (whole entry): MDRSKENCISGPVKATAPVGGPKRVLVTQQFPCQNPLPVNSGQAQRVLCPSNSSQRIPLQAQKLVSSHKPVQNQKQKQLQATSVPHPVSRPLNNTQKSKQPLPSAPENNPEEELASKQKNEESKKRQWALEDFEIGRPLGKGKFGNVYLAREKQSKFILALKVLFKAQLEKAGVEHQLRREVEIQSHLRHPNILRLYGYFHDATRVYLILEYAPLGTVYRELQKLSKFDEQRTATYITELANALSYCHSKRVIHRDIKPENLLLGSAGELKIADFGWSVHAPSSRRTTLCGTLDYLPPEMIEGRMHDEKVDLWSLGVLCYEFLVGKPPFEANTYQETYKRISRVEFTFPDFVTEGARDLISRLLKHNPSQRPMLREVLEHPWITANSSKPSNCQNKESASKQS

[6] = molecular target: Tyrosine-protein kinase ABL1 (Mus musculus) (UniProt P00520); test: Residual activity of mouse Abl kinase at 1 uM relative to control
Tyrosine-protein kinase ABL1 (Mus musculus), sequence (P00520 whole entry): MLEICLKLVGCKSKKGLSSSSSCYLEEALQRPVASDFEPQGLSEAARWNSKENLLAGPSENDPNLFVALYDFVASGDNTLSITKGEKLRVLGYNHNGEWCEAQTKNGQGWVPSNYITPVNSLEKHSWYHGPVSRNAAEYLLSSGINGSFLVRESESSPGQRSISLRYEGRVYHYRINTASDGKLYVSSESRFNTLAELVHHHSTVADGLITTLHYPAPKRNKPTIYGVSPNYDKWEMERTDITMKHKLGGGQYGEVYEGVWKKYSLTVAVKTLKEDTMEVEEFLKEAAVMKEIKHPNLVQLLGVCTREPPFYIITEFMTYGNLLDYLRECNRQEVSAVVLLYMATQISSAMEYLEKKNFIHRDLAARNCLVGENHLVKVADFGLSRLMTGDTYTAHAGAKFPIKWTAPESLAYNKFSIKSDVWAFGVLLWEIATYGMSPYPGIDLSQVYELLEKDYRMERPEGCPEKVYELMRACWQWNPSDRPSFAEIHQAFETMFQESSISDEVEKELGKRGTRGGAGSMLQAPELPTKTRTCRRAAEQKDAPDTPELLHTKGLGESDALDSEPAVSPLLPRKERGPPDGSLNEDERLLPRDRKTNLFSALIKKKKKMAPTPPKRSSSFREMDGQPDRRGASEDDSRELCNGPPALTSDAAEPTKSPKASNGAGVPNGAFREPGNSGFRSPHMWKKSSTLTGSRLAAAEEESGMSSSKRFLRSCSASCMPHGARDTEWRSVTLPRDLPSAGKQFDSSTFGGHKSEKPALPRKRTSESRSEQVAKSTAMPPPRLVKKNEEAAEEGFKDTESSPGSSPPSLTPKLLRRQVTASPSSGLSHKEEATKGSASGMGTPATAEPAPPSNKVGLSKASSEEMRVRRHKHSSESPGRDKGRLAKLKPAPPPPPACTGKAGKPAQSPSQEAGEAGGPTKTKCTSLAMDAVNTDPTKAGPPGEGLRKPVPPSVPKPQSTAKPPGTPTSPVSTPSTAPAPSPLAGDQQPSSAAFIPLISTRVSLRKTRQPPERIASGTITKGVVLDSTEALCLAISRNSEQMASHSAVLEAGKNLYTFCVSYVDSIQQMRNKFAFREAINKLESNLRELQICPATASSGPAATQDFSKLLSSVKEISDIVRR

[7] = molecular target: Glycogen synthase kinase-3 alpha (Homo sapiens) (UniProt P49840); test: Inhibition of human GSK3alpha relative to control; values are per cent of control
Glycogen synthase kinase-3 alpha (Homo sapiens), sequence (P49840 2-483 limits assumed): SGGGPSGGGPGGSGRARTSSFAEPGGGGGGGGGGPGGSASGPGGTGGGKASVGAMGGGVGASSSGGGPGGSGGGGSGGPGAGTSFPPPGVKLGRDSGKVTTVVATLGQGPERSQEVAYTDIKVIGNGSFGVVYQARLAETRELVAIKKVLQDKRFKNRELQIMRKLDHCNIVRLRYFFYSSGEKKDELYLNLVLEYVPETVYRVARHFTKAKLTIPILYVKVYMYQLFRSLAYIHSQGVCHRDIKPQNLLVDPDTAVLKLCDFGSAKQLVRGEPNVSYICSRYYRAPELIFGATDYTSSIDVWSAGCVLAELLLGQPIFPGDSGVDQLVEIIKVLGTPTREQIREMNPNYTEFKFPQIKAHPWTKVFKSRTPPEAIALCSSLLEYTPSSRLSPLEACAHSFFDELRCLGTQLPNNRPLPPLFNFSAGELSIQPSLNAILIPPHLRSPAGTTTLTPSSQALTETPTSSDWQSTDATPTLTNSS

[8] = molecular target: Rho-associated protein kinase 2 (Homo sapiens) (UniProt O75116); test: Inhibition of human ROCK2 at 1 uM relative to control; values are per cent of control
Rho-associated protein kinase 2 (Homo sapiens), sequence (O75116 whole entry, looked up): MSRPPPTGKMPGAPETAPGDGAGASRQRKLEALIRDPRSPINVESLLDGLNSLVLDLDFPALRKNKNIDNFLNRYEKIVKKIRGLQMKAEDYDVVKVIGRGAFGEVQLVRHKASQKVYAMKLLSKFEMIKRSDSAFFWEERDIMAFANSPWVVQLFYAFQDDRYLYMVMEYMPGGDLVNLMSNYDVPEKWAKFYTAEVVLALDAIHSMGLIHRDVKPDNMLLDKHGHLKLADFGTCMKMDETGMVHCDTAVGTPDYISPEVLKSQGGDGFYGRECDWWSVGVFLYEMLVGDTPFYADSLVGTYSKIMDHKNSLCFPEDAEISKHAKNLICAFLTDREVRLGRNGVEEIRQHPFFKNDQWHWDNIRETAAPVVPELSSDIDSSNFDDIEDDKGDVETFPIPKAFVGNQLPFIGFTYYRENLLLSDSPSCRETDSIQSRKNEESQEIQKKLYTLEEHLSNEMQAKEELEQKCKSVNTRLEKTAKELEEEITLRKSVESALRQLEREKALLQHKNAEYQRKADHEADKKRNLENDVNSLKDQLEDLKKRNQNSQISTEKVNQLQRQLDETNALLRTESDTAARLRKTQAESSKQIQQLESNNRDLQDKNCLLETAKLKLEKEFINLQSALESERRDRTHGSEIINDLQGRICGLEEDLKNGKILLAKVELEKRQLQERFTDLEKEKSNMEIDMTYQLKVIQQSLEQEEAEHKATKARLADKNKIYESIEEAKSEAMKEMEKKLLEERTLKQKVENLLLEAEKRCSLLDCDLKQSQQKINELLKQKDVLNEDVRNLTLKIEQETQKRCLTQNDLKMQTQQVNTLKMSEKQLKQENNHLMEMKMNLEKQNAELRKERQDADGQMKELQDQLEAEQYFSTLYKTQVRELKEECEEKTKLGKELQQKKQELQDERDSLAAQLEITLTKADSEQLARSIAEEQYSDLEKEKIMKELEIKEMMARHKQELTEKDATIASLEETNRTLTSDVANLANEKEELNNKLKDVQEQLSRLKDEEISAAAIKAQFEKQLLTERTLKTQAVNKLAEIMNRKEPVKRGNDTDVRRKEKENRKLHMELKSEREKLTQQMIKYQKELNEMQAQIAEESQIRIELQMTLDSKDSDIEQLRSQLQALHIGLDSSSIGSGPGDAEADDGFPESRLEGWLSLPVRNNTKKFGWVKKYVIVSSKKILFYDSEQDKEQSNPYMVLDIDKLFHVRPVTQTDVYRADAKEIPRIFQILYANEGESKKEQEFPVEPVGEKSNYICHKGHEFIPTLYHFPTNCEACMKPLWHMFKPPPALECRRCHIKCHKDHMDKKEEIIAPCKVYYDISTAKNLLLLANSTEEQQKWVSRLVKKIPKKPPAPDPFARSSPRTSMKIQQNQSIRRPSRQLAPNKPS

[9] = molecular target: T2, Protein kinase C zeta type (Homo sapiens) (UniProt Q05513); test: Residual activity of human PKCzeta at 1 uM relative to control
T2 sequence (whole entry): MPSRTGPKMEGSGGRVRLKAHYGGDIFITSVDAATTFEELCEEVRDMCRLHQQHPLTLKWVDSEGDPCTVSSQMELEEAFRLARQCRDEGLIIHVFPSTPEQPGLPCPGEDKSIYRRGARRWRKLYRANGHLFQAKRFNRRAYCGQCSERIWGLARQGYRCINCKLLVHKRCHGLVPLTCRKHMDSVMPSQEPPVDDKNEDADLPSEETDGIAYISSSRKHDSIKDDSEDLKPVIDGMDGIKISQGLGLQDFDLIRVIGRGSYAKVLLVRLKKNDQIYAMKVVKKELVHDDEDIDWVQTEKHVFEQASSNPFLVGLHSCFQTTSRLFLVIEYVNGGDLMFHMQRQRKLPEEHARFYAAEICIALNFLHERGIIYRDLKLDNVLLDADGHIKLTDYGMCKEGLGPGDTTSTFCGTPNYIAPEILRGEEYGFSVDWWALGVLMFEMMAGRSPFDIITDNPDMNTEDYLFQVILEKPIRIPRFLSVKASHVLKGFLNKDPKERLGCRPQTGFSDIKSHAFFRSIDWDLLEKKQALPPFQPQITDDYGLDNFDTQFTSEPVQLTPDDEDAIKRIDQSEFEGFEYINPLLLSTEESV

[10] = molecular target: Tyrosine-protein kinase Yes (Homo sapiens) (UniProt P07947); test: Inhibition of human Yes kinase at 1 uM relative to control; values are per cent of control
Tyrosine-protein kinase Yes (Homo sapiens), sequence (P07947 2-543 limits assumed): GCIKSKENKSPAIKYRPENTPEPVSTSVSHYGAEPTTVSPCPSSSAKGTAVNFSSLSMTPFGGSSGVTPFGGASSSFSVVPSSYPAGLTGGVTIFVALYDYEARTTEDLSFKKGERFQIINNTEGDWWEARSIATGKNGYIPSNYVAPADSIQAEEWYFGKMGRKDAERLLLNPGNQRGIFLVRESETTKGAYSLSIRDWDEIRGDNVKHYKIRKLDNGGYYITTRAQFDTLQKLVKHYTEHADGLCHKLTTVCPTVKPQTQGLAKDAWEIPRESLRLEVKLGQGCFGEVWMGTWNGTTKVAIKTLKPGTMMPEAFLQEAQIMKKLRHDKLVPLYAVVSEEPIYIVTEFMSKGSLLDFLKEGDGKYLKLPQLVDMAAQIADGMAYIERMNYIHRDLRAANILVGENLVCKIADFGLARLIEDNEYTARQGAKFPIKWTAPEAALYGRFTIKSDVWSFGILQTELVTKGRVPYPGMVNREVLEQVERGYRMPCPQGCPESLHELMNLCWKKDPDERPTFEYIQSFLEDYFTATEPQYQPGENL

Homo sapiens [11] = organism: Homo sapiens; test: Residual activity of human PAR1B-alpha at 1 uM relative to control
[12] = molecular target: T3, Ephrin type-B receptor 4 (Homo sapiens) (UniProt P54760); test: Residual activity of human EphB4 at 1 uM relative to control
T3 sequence (whole entry): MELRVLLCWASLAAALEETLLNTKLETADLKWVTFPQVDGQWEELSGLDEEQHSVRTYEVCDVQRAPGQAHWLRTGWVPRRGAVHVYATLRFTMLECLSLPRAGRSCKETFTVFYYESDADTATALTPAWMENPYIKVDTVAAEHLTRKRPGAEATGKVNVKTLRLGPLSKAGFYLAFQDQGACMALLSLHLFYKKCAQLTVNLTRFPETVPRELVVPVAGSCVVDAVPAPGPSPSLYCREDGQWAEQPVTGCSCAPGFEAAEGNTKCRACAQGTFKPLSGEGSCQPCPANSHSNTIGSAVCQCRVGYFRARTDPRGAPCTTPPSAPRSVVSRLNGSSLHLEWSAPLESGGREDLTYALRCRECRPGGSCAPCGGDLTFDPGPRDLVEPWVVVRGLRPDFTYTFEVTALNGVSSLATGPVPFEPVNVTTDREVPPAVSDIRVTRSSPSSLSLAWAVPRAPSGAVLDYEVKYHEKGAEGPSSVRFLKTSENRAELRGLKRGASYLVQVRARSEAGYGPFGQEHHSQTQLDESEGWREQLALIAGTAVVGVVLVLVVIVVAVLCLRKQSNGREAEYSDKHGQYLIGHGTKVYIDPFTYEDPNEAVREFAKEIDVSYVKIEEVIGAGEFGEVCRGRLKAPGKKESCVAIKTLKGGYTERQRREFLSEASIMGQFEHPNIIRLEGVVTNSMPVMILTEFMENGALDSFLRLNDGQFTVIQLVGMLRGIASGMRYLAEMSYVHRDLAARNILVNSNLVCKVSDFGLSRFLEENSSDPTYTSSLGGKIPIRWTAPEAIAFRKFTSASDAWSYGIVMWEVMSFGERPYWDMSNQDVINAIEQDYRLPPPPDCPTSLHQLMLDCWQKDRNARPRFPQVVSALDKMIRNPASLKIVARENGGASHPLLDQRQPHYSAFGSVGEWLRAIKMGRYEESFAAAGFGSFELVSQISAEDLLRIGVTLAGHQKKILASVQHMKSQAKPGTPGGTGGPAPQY

Rattus norvegicus = organism: Rattus norvegicus; test: Inhibition of rat CaMK2 at 1 uM relative to control; values are per cent of control

residual activity [1] | residual activity [2] | residual activity [3] | residual activity (Homo sapiens [4]) | residual activity [5] | residual activity [6] | residual activity [7] | residual activity [8] | residual activity [9] | residual activity [10] | residual activity (Homo sapiens [11]) | residual activity [12] | residual activity (Rattus norvegicus) | SMILES
113% | 91% | 93% | 111% | 106% | 110% | 9% | 104% | 116% | 43% | 101% | 100% | – | O=C1NC(=O)C2=C1c1cn(c3ccccc13)CCCc1ccc(c(N3CCCC3)n1)CCCn1cc2c2ccccc21
119% | 70% | 92% | 108% | 111% | 108% | 3% | 103% | 105% | 79% | 100% | 103% | 107% | CN(C)c1cc2cc(n1)CCCn1cc(c3ccccc31)C1=C(C(=O)NC1=O)c1cn(c3ccccc13)CCC2
126% | 74% | 92% | 107% | 111% | 104% | 4% | 107% | 99% | 58% | 96% | 109% | 109% | O=C1NC(=O)C2=C1c1cn(c3ccccc13)CCCc1cc(nc(N3CCCC3)c1)CCCn1cc2c2ccccc21
107% | 109% | 108% | 89% | 109% | 98% | 4% | 110% | 98% | 96% | 94% | 89% | 92% | CN(C)c1nc2ccc1CCCn1cc(c3ccccc31)C1=C(C(=O)NC1=O)c1cn(c3ccccc13)CC2
